Where two headings read alike, the source gives them in different places. Positions of bridges follow the written chain, without caps; N, C: chain ends. Non-standard residues stand in square brackets, D forms with d. Residues, ends and D or L forms follow the SMILES beside them. *: point of attachment. X4 = CC(=O)N[C@H]1[C@H](OCCCCC(=O)NCCCNCC(=O)CCOCC(COCCC(=O)NCCCNC(=O)CCCCO[C@@H]2O[C@H](CO)[C@H](O)[C@H](O)[C@H]2NC(C)=O)(COCCC(=O)NCCCNC(=O)CCCCO[C@@H]2O[C@H](CO)[C@H](O)[C@H](O)[C@H]2NC(C)=O)NC(=O)CCCCCCC(=O)*)O[C@H](CO)[C@H](O)[C@@H]1O; X6 = O=C(CCCO[C@@H]1OC(CO[C@H]2OC(CO[C@H]3OC(CO)[C@@H](O)C(O)C3C[C@H]3OC(COP(=O)(O)O)[C@@H](O)C(O)C3O)[C@@H](O)C(O)C2O)[C@@H](O)C(O[C@H]2OC(CO)[C@@H](O)C(O)C2O[C@H]2OC(COP(=O)(O)O)[C@@H](O)C(O)C2O)C1O)NNC(=O)CO/N=C/c1ccc(C(=O)*)cc1; X7 = O=C(OC[C@@H]1[C@@H]2CCc3c(nnn3CCCCCCO[C@H](O[C@@H](/C=N/OCCO[C@H]3O[C@H](CCP(=O)(O)O)[C@@H](O)[C@H](O)[C@@H]3O)CO)[C@H](O)/C=N\OCCO[C@H]3O[C@H](CCP(=O)(O)O)[C@@H](O)[C@H](O)[C@@H]3O)CC[C@@H]21)*; Bip = N[C@@H](Cc1ccc(-c2ccccc2)cc1)C(=O)O; NMeA = CN[C@@H](C)C(=O)O
How the values were obtained:
[1] = molecular target: T1, FHR3 (Homo sapiens, UniProt Q02985); assay: SPR binding to biotinylated FHR3 (Proteon XPR36); conditions: Bifunctional Compound
T1 construct: Purified FHR3 with C-terminal biotinylated Avitag was used for the assay
T1 sequence (Q02985 19-330): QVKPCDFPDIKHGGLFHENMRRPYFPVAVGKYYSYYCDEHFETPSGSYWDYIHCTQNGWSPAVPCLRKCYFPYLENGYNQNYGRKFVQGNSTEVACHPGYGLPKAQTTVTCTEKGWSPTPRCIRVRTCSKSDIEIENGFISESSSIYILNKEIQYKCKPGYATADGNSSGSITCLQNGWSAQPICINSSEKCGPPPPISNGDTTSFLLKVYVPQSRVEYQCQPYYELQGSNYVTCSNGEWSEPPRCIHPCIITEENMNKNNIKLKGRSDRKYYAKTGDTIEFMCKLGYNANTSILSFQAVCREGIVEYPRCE
Experimental: SPR was used to obtain the binding data for FHR3 receptor ligands compounds (C12), (C13), (C14), (C15) and (C16), either alone or as part of the bifunctional compounds (BFC13), (BFC14), (BFC15), (BFC16) and (BFC17), respectively.
SPR Binding experiments were performed on a Proteon XPR36 instrument (Bio-Rad Laboratories). Purified FHR3 with C-terminal biotinylated Avitag was used for the assay. Biotinylated FHR3 was incubated with fivefold molar excess of bifunctional compounds (BFC13), (BFC14), (BFC15), (BFC16) or (BFC17), or compounds (C12), (C13), (C14), (C15) or (C16), and immobilized onto a Neutravidin coated sensor chip. (NLC chip, Bio-Rad Laboratories, Inc). […]
To perform sandwich SPR binding assays, His-ASGPR1 (62-291) protein stocks were diluted with running buffer to a desired concentration. […] Sensorgrams were recorded for association and dissociation phases. All sensorgrams were processed by subtracting the binding response recorded from a blank control surfaces (or interspot surfaces), followed by subtracting buffer blank injections from the reaction surface. […]

[2] = molecular target: T2, human ASGPR1 (Homo sapiens, UniProt P07306); assay: ASGPR1 SPR direct binding (Biacore, SA chip)
T2 construct: Recombinant extracellular domain of human ASGPR1 with N-terminal biotinylated Avitag
T2 sequence (P07306 62-291 limits assumed): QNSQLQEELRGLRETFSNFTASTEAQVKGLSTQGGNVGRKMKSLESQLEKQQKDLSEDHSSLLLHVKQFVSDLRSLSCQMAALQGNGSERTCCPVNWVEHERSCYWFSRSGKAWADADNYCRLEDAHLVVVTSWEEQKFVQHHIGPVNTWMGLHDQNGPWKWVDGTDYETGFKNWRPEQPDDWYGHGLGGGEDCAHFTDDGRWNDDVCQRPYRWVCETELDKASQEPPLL
Experimental: SPR was used to obtain the binding data for ASGP receptor ligand compound (int-CC2), either alone or as part of the bifunctional compounds (BFC-13), (BFC-15) and (BFC16).
(§1) ASGPR1 SPR experiments were performed on either Biacore T200 or Biacore 8K. The assay was optimized for Biacore (Streptavidin) SA chip in running buffer consisting of 20 mM HEPES, 300 mM NaCl, 2 mM CaCl2, 0.01% tween-20, 2% DMSO, pH 7.4. Recombinant extracellular domain of human ASGPR1 with N-terminal biotinylated Avitag was diluted to 20 μg/mL in running buffer, and immobilized onto SA chip after it was preconditioned with at least four 60-second injections at 30 uL/min of 1 M NaCl/40 mM NaOH solution. Protein immobilization level varied from 500 RU to 3500 RU dependent on analytes' molecular weight, for targeted Rmax of 30 RUs. Direct binding of analytes to ASGPR1 was observed when a dose response titration of analytes in 2% DMSO was flown over the immobilized protein. Data analysis was done on either Biacore T200 Evaluation Software or Biacore Insight Evaluation Software.
SPR was used to obtain the binding data for ASGP receptor ligand compounds (int-CC2), either alone or as part of the bifunctional compounds (BFC1).
as §1, with “Biacore” for “Biacore (Streptavidin)”

[3] = molecular target: M6PR (Homo sapiens, UniProt P11717); assay: SPR binding to M6P receptor
Text: SPR was used to obtain the binding data for M6P receptor ligands compounds (int-CC6), either alone or as part of the bifunctional compound (BFC-2).

[4] = molecular target: T3, human PCSK9 (Homo sapiens, UniProt Q8NBP7); assay: SPR binding to biotinylated human PCSK9 (Proteon XPR36); conditions: Bifunctional Compound; SPR; read-out: PCSK9 KD
T3 construct: Purified recombinant full length human PCSK9 with C-terminal biotinylated Avitag
Experimental: SPR was used to obtain the binding data for PCSK9 receptor ligand compound (C5), either alone or as part of the bifunctional compounds (BFC1), respectively.
SPR Binding experiments were performed on a Proteon XPR36 instrument (Bio-Rad Laboratories). Purified recombinant full length human PCSK9 with C-terminal biotinylated Avitag was used for the assay. Biotinylated human PCSK9 was incubated with fivefold molar excess of bifunctional compound (BFC1) or compound (C5), and immobilized onto a Neutravidin coated sensor chip. (NLC chip, Bio-Rad Laboratories, Inc). After conditioning the chip by injecting running buffer (20 mM Tris pH7.5, 300 mM NaCl, 25 mM CaCl2, 2 mM betamercaptoethanol, 2% DMSO and 0.05% Tween-20) at a flow rate of 0.1 mL/min for 240 s, PCSK9 protein was injected at a protein concentration of 0.02 mg/ml in running buffer with fivefold molar excess of bifunctional compound and a flow rate of 0.03 mL/min followed by 4 washes with running buffer with 1 μM of bifunctional compound (0.1 mL/min for 60 seconds each).
To perform sandwich SPR binding assays, His-ASGPR1 (62-291) protein stocks were diluted with running buffer to a desired concentration. ASGPR was injected at a flow rate of 0.1 mL/min for 240 s and allowed to dissociate for 1200 s. Sensorgrams were recorded for association and dissociation phases. All sensorgrams were processed by subtracting the binding response recorded from a blank control surfaces (or interspot surfaces), followed by subtracting buffer blank injections from the reaction surface. Data were processed with the ProteOn Manager software (version 3.1.0.6, Bio-Rad, Inc.).

[5] = Bifunctional Compound (PCSK9 series), Table 9, read-out: ASGPR binding KD

M6PR, sequence (P11717 whole entry): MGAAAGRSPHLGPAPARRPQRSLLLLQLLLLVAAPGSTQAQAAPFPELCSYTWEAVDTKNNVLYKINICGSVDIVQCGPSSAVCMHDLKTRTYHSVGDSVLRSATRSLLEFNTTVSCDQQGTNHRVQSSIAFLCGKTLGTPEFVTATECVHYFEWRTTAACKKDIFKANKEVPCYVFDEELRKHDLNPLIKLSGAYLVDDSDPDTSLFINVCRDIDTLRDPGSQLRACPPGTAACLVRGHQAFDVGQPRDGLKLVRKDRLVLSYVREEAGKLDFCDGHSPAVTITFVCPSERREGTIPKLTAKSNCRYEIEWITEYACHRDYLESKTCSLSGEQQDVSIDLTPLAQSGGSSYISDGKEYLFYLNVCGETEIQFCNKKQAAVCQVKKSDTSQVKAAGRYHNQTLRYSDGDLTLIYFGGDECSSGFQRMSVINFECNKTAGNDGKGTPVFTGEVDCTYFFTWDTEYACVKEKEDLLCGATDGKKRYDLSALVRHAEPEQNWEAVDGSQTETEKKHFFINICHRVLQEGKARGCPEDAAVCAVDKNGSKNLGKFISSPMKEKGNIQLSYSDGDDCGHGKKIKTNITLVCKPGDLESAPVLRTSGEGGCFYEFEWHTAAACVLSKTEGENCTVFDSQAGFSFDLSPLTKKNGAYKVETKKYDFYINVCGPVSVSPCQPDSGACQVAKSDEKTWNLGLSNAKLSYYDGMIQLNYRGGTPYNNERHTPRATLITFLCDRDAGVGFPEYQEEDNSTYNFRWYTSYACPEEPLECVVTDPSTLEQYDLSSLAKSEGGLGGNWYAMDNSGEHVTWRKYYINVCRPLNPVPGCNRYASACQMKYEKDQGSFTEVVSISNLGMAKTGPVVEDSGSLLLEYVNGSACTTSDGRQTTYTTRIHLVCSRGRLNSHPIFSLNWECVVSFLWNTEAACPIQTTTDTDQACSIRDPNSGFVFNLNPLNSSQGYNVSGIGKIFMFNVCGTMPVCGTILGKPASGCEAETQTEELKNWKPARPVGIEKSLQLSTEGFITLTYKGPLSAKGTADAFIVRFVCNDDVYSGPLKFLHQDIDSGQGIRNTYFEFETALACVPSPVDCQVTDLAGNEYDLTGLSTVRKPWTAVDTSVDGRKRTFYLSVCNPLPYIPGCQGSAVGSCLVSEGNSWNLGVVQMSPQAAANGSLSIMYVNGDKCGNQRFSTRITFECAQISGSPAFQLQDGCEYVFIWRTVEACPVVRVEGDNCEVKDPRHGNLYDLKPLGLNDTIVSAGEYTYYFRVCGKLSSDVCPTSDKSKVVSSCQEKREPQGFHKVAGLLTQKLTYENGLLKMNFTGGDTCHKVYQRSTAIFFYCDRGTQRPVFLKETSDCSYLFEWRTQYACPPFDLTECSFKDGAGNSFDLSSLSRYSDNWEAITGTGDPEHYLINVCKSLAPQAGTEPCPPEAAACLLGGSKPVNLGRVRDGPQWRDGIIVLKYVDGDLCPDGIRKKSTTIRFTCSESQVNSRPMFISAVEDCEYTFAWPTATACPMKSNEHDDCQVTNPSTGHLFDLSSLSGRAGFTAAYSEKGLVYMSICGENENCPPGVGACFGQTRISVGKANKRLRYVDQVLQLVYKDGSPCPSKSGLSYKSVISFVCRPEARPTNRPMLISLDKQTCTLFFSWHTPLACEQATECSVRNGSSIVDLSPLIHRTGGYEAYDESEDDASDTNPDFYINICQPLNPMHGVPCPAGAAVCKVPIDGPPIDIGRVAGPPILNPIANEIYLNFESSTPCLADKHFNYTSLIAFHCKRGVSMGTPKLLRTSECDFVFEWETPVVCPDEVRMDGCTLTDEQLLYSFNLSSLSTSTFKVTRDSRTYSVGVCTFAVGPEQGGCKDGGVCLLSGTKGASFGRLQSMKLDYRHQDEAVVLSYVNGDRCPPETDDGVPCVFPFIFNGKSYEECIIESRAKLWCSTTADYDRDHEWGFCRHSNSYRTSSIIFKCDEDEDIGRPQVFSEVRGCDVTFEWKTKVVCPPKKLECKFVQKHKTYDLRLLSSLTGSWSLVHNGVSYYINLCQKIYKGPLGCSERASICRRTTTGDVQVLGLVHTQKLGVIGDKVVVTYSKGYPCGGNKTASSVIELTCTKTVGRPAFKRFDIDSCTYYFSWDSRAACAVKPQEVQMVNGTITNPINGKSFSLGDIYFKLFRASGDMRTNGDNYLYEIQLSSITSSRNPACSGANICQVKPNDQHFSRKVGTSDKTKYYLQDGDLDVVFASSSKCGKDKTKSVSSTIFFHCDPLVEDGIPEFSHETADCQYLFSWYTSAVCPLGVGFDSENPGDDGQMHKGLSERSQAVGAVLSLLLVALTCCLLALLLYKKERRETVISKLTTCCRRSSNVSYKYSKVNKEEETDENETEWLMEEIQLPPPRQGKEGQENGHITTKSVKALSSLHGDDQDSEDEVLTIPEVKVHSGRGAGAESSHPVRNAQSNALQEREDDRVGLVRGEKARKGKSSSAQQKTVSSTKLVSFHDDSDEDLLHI
T3 sequence (Q8NBP7 153-692): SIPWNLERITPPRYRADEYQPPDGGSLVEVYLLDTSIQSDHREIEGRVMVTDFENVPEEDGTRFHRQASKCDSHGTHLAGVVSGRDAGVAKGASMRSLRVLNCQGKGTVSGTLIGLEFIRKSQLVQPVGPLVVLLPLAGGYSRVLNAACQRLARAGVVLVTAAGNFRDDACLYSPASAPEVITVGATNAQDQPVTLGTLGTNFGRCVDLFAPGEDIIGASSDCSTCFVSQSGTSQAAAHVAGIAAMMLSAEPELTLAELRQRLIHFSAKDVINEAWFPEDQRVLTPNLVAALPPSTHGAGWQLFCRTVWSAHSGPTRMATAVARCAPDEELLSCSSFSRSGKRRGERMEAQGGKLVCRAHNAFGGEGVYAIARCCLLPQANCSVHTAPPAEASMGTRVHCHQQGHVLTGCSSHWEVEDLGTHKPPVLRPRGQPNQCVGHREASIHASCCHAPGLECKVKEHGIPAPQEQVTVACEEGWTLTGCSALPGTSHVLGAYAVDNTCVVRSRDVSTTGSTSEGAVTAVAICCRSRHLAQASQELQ

Compound	Kd [3] [nM]	Kd [4] [nM]	Kd [2, 5] [nM]	further results
CC(=O)N[C@H]1[C@H](OCCCCC(=O)NCCCNC(=O)CCOCC(COCCC(=O)NCCCNC(=O)CCCCO[C@@H]2O[C@H](CO)[C@H](O)[C@H](O)[C@H]2NC(C)=O)(COCCC(=O)NCCCNC(=O)CCCCO[C@@H]2O[C@H](CO)[C@H](O)[C@H](O)[C@H]2NC(C)=O)NC(=O)CCOCCOCCOCCOCCOCCOCCOCCOCCOCCC(=O)NCCCC[C@@H]2NC(=O)[C@H](CCCNC(=N)N)NC(=O)[C@H](C)N(C)C(=O)[C@H](Cc3c[nH]c4ccccc34)NC(=O)[C@H](Cc3c[nH]cn3)NC(=O)[C@H](CC(C)C)NC(=O)[C@H](CO)NC(=O)[C@H](C)N(C)C(=O)[C@H](Cc3ccccc3)N(C)C(=O)[C@H](Cc3ccccc3)NC(=O)CSC[C@@H](C(=O)NCC(N)=O)NC(=O)[C@H](CCCNC(=N)N)NC(=O)[C@H](CC(=O)O)NC2=O)O[C@H](CO)[C@H](O)[C@@H]1O [BFC-16]				Kd [1]: 26 nM; Kd ([2]; Bifunctional Compound (FHR3 series), Table 7, read-out: ASGRR KD): 0.32 nM
NOCC(=O)NNC(=O)CCCO[C@@H]1OC(CO[C@H]2OC(CO[C@H]3OC(CO)[C@@H](O)[C@H](O)C3O[C@H]3OC(COP(=O)(O)O)[C@@H](O)C(O)[C@H]3O)[C@@H](O)[C@H](O)C2O)[C@@H](O)[C@H](O[C@H]2OC(CO)[C@@H](O)C(O)[C@H]2O[C@H]2OC(COP(=O)(O)O)[C@@H](O)C(O)[C@H]2O)C1O (stereo partly drawn) [int-CC6]				Kd ([3]; Free Ligand, SPR, read-out: M6PR binding KD): 0.327 nM
CC(C)[C@@H]1NC(=O)[C@H](Cc2ccccc2)NC(=O)CSC[C@@H](C(=O)NCC(=O)N[C@@H](CCCCNC(=O)OC[C@@H]2[C@@H]3CCc4c(nnn4CCCCCCO[C@H](O[C@@H](/C=N/OCCO[C@H]4O[C@H](CCP(=O)(O)O)[C@@H](O)[C@H](O)[C@@H]4O)CO)[C@H](O)/C=N\OCCO[C@H]4O[C@H](CCP(=O)(O)O)[C@@H](O)[C@H](O)[C@@H]4O)CC[C@@H]32)C(N)=O)NC(=O)[C@@H]2CCCN2C(=O)[C@H](C)NC(=O)[C@H](CCC(=O)O)NC(=O)[C@H](C)N(C)C(=O)[C@H](Cc2ccc(-c3ccccc3)cc2)NC(=O)[C@H](C)N(C)C(=O)[C@H](Cc2ccc(-c3ccccc3)cc2)NC(=O)[C@H]([C@@H](C)O)NC(=O)[C@H]([C@@H](C)O)NC(=O)[C@@H]2CCCN2C1=O [BFC-4] ({CH2CO}-FVPTT[Bip][NMeA][Bip][NMeA]EAPCGK(X7)-NH2; thioether N-13)	110			
CC(C)[C@@H]1NC(=O)[C@H](Cc2ccccc2)NC(=O)CSC[C@@H](C(=O)NCC(=O)N[C@@H](CCCCNC(=O)c2ccc(/C=N/OCC(=O)NNC(=O)CCCO[C@@H]3OC(CO[C@H]4OC(CO[C@H]5OC(CO)[C@@H](O)C(O)C5C[C@H]5OC(COP(=O)(O)O)[C@@H](O)C(O)C5O)[C@@H](O)C(O)C4O)[C@@H](O)C(O[C@H]4OC(CO)[C@@H](O)C(O)C4O[C@H]4OC(COP(=O)(O)O)[C@@H](O)C(O)C4O)C3O)cc2)C(N)=O)NC(=O)[C@@H]2CCCN2C(=O)[C@H](C)NC(=O)[C@H](CCC(=O)O)NC(=O)[C@H](C)N(C)C(=O)[C@H](Cc2ccc(-c3ccccc3)cc2)NC(=O)[C@H](C)N(C)C(=O)[C@H](Cc2ccc(-c3ccccc3)cc2)NC(=O)[C@H]([C@@H](C)O)NC(=O)[C@H]([C@@H](C)O)NC(=O)[C@@H]2CCCN2C1=O (stereo partly drawn) [BFC-2] ({CH2CO}-FVPTT[Bip][NMeA][Bip][NMeA]EAPCGK(X6)-NH2; thioether N-13)	7.19			
CC(=O)N[C@H]1[C@H](OCCCCC(=O)NCCCNCC(=O)CCOCC(COCCC(=O)NCCCNC(=O)CCCCO[C@@H]2O[C@H](CO)[C@H](O)[C@H](O)[C@H]2NC(C)=O)(COCCC(=O)NCCCNC(=O)CCCCO[C@@H]2O[C@H](CO)[C@H](O)[C@H](O)[C@H]2NC(C)=O)NC(=O)CCCCCCC(=O)NCCCC[C@H](NC(=O)CNC(=O)[C@@H]2CSCC(=O)N[C@@H](Cc3ccccc3)C(=O)N[C@@H](C(C)C)C(=O)N3CCC[C@H]3C(=O)N[C@@H]([C@@H](C)O)C(=O)N[C@@H]([C@@H](C)O)C(=O)N[C@@H](Cc3ccc(-c4ccccc4)cc3)C(=O)N(C)[C@@H](C)C(=O)N[C@@H](Cc3ccc(-c4ccccc4)cc3)C(=O)N(C)[C@@H](C)C(=O)N[C@@H](CCC(=O)O)C(=O)N[C@@H](C)C(=O)N3CCC[C@H]3C(=O)N2)C(N)=O)O[C@H](CO)[C@H](O)[C@@H]1O [BFC-1] ({CH2CO}-FVPTT[Bip][NMeA][Bip][NMeA]EAPCGK(X4)-NH2; thioether N-13)		3.9	0.32	
COC[C@H]1NC(=O)[C@@H](CCCNC(=O)CCCCCCC(=O)NC(COCCC(=O)NCCCNC(=O)CCCCO[C@H]2O[C@@H](CO)[C@@H](O)[C@@H](O)[C@@H]2NC(C)=O)(COCCC(=O)NCCCNC(=O)CCCCO[C@H]2O[C@@H](CO)[C@@H](O)[C@@H](O)[C@@H]2NC(C)=O)COCCC(=O)NCCCNC(=O)CCCCO[C@H]2O[C@@H](CO)[C@@H](O)[C@@H](O)[C@@H]2NC(C)=O)N(Cc2ccc(Cl)cc2Oc2ccc(-c3cnc(CN(C)C)n3C)cc2)C(=O)C[C@H](Cc2ccccc2)C(=O)N(C)[C@@H]2CCCC[C@H]2NC(=O)C[C@@H](Cc2ccc(Cl)cc2)N(C)C1=O [BFC-10]		2.3	100	

— patent US12605451B2, “Targeted plasma protein degradation” (Novartis AG, priority 2020, dated 2026)
